Reference: patent publication US7709481B2, “Phenyl-1,2,4-oxadiazolone derivatives, processes for their preparation and methods for their use as pharmaceuticals” (Sanofi-Aventis, priority 2005, dated 2010)

Columns and labels:
human PPARalpha = molecular target: T1, human PPARalpha (Homo sapiens, UniProt Q07869); test: Cellular PPARalpha assay (HEK PPARalpha reporter cell line, luciferase); type: cell-based; settings: 24 h incubation
T1 construct: human PPARalpha receptor (amino acids S167-Y468); expressed in transfected cells; plasmid pcDNA3
T1 sequence (Q07869 167-468): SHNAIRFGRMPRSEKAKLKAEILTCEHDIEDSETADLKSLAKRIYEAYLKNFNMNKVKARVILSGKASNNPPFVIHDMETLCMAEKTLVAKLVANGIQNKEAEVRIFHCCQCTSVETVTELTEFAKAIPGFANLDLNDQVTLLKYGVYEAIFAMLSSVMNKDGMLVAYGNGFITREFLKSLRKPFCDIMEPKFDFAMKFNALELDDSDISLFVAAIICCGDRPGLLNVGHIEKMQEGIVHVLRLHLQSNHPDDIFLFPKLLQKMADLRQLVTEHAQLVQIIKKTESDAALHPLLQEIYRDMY
Procedure: The activity of the compounds was tested as follows. The potency of substances which bind to human PPARalpha and activate it in an agonistic manner is analyzed using a stably transfected HEK cell line (HEK=human embryo kidney) which is referred to here as PPARalpha reporter cell line. It contains two genetic elements, a luciferase reporter element (pdeltaM-GAL4-Luc-Zeo) and a PPARalpha fusion protein (GR-GAL4-humanPPARalpha-LBD) which mediates expression of the luciferase reporter element depending on a PPARalpha ligand. The stably and constitutively expressed fusion protein GR-GAL4-humanPPARalpha-LBD binds in the cell nucleus of the PPARalpha reporter cell line via the GAL4 protein portion to the GAL4 DNA binding motifs 5′-upstream of the luciferase reporter element which is stably integrated in the genome of the cell line. There is only weak expression of the luciferase reporter gene in the absence of a PPARalpha ligand if fatty acid-depleted fetal calf serum (cs-FCS) is used in the assay. PPARalpha ligands bind and activate the PPARalpha fusion protein and thereby stimulate the expression of the luciferase reporter gene. The luciferase which is formed can be detected by means of chemiluminescence via an appropriate substrate.
The PPARalpha reporter cell line was prepared in two stages. Firstly, the luciferase reporter element was constructed and stably transfected into HEK cells. For this purpose, five binding sites of the yeast transcription factor GAL4 (Accession # AF264724) were cloned in 5′-upstream of a 68 bp-long minimal MMTV promoter (Accession # V01175). The minimal MMTV promoter section contains a CCAAT box and a TATA element in order to enable efficient transcription by RNA polymerase II. The cloning and sequencing of the GAL4-MMTV construct took place in analogy to the description of Sambrook J. et. al. (Molecular cloning, Cold Spring Harbor Laboratory Press, 1989). Then the complete Photinus pyralis gene (Accession # M15077) was cloned in 3′-downstream of the GAL4-MMTV element. After sequencing, the luciferase reporter element consisting of five GAL4 binding sites, MMTV promoter and luciferase gene was recloned into a plasmid which confers zeocin resistance in order to obtain the plasmid pdeltaM-GAL4-Luc-Zeo. This vector was transfected into HEK cells in accordance with the statements in Ausubel, F. M. et al. (Current protocols in molecular biology, Vol. 1-3, John Wiley & Sons, Inc., 1995).
In a second step, the PPARalpha fusion protein (GR-GAL4-humanPPARalpha-LBD was introduced into the stable cell clone described. For this purpose, initially the cDNA coding for the N-terminal 76 amino acids of the glucocorticoid receptor (Accession # P04150) was linked to the cDNA section coding for amino acids 1-147 of the yeast transcription factor GAL4 (Accession # P04386). The cDNA of the ligand-binding domain of the human PPARalpha receptor (amino acids S167-Y468; Accession # S74349) was cloned in at the 3′-end of this GR-GAL4 construct. The fusion construct prepared in this way (GR-GAL4-humanPPARalpha-LBD) was recloned into the plasmid pcDNA3 (Invitrogen) in order to enable constitutive expression therein by the cytomegalovirus promoter. This plasmid was linearized with a restriction endonuclease and stably transfected into the previously described cell clone containing the luciferase reporter element. The finished PPARalpha reporter cell line which contains a luciferase reporter element and constitutively expresses the PPARalpha fusion protein (GR-GAL4-human PPARalpha-LBD) was isolated by selection with zeocin (0.5 mg/ml) and G418 (0.5 mg/ml).
The activity of PPARalpha agonists is determined in a 3-day assay which is described below: […]

human PPARdelta = molecular target: T2, human PPARdelta (Homo sapiens, UniProt Q03181); test: Cellular PPARdelta assay (HEK PPARdelta reporter cell line, luciferase); type: cell-based; settings: 24 h incubation
T2 construct: human PPARdelta receptor (amino acids S139-Y441); expressed in transfected cells; plasmid pcDNA3
T2 sequence (Q03181 139-441): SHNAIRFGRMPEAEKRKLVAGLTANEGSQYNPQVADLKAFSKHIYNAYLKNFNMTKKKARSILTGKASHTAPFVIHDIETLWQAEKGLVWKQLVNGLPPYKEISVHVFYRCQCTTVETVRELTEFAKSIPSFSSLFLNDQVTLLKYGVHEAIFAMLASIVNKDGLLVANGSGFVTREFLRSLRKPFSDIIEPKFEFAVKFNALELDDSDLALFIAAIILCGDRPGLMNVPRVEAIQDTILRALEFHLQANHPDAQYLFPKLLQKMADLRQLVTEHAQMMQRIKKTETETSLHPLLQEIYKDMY
Procedure: The raw data from the luminometer are transferred into a Microsoft Excel file. Dose-effect plots and EC50 values of PPAR agonists are calculated using the XL.Fit program as specified by the manufacturer (IDBS). […] Compounds of the invention of the formula I activate the PPARalpha receptor. Determination of EC50 values of PPAR agonists in the cellular PPARdelta assay The potency of substances which bind to human PPARdelta and activate it in an agonistic manner is analyzed using a stably transfected HEK cell line (HEK=human embryo kidney) which is referred to here as PPARdelta reporter cell line. In analogy to the assay described for PPARalpha, the PPARdelta reporter cell line also contains two genetic elements, a luciferase reporter element (pdeltaM-GAL4-Luc-Zeo) and a PPARdelta fusion protein (GR-GAL4-humanPPARdelta-LBD) which mediates expression of the luciferase reporter element depending on a PPARdelta ligand. The stably and constitutively expressed fusion protein GR-GAL4-humanPPARdelta-LBD binds in the cell nucleus of the PPARdelta reporter cell line via the GAL4 protein portion to the GAL4 DNA binding motifs 5′-upstream of the luciferase reporter element which is stably integrated in the genome of the cell line. There is only little expression of the luciferase reporter gene in the absence of a PPARdelta ligand if fatty acid-depleted fetal calf serum (cs-FCS) is used in the assay. PPARdelta ligands bind and activate the PPARdelta fusion protein and thereby stimulate expression of the luciferase reporter gene. The luciferase which is formed can be detected by means of chemiluminescence via an appropriate substrate.
The production of the stable PPARdelta reporter cell line is based on a stable HEK-cell clone which was stably transfected with a luciferase reporter element. This step was already described above in the section “construction of the PPARalpha reporter cell line”. In a second step, the PPARdelta fusion protein (GR-GAL4-humanPPARdelta-LBD was stably introduced into this cell clone. For this purpose, the cDNA coding for the N-terminal 76 amino acids of the glucocorticoid receptor (Accession # P04150) was linked to the cDNA section coding for amino acids 1-147 of the yeast transcription factor GAL4 (Accession # P04386). The cDNA of the ligand-binding domain of the human PPARdelta receptor (amino acids S139-Y441; Accession # L07592) was cloned in at the 3′-end of this GR-GAL4 construct. The fusion construct prepared in this way (GR-GAL4-humanPPARdelta-LBD) was recloned into the plasmid pcDNA3 (Invitrogen) in order to enable constitutive expression by the cytomegalovirus promoter. This plasmid was linearized with a restriction endonuclease and stably transfected into the previously described cell clone containing the luciferase reporter element. The resulting PPARdelta reporter cell line which contains a luciferase reporter element and constitutively expresses the PPARdelta fusion protein (GR-GAL4-human PPARdelta-LBD) was isolated by selection with zeocin (0.5 mg/ml) and G418 (0.5 mg/ml).
The activity of PPARdelta agonists is determined in a 3-day assay in exact analogy to the procedure already described for the PPARalpha reporter cell line except that the PPARdelta reporter cell line and a specific PPARdelta agonist was used as a standard to control test efficacy. PPARdelta EC50 values in the range from 0.3 nM to >10 μM were measured for the PPAR agonists of Examples 1 to 69 described in this application. Compounds of the invention of the formula I activate the PPARdelta receptor.

Row | EC50 (human PPARalpha) | EC50 (human PPARdelta) | SMILES
1 | 304 nM | 11 nM | CCC(Oc1ccc(-c2noc(=O)[nH]2)c(F)c1)c1sc([C@H]2CC[C@H](C(F)(F)F)CC2)nc1C (stereo partly drawn) [Example 66, 3-(2-Fluoro-4-{1-[4-methyl-2-(trans-1,4-trifluoromethyl-cyclohexyl)-thiazol-5-yl]-propoxy}-phenyl)-4H-1,2,4-oxadiazol-5-one]
2 | 1260 nM | 230 nM | Cc1nc(C2CCCCC2)sc1COc1ccc(-c2noc(=O)[nH]2)c(Cl)c1 [Example 5, 3-[2-Chloro-4-(2-cyclohexyl-4-methyl-thiazol-5-ylmethoxy)-phenyl]-4H-[1,2,4]oxadiazol-5-one]
3 | > 33000 nM | 52 nM | O=c1[nH]c(-c2cc(F)c(OCc3sc([C@H]4CC[C@H](C(F)(F)F)CC4)nc3CN3CCC(C(F)(F)F)CC3)cc2OC(F)F)no1 [Example 62, 3-{2-Difluoromethoxy-5-fluoro-4-[2-(trans-1,4-trifluoromethyl-cyclohexyl)-4-(4-trifluoromethyl-piperidin-1-ylmethyl)-thiazol-5-ylmethoxy]-phenyl}-4H-1,2,4-oxadiazol-5-one]
4 | 75 nM | 0.3 nM | O=c1[nH]c(-c2ccc(OCc3sc(-c4ccc(C(F)(F)F)nc4)nc3CCCOCc3ccccc3)cc2Cl)no1 [Example 25, 3-{4-[4-(3-Benzyloxy-propyl)-2-(6-trifluoromethyl-pyridin-3-yl)-thiazol-5-ylmethoxy]-2-chloro-phenyl}-4H-[1,2,4]oxadiazol-5-one]
5 | 530 nM | 70 nM | COCc1nc(CCC2CCCCC2)sc1COc1ccc(-c2noc(=O)[nH]2)c(Cl)c1 [Example 10, 3-{2-Chloro-4-[2-(2-cyclohexyl-ethyl)-4-methoxymethyl-thiazol-5-ylmethoxy]-phenyl}-4H-[1,2,4]oxadiazol-5-one]
6 | 2500 nM | 40 nM | COCc1nc([C@H]2CC[C@H](C(F)(F)F)CC2)oc1COc1ccc(-c2noc(=O)[nH]2)c(Cl)c1 [Example 18a, Trans-3-{2-Chloro-4-[4-methoxymethyl-2-(4-trifluoromethyl-cyclohexyl)-oxazol-5-ylmethoxy]-phenyl}-4H-[1,2,4]oxadiazol-5-one]
7 | 4330 nM | 7390 nM | Cc1nc(-c2cccc3cccnc23)sc1COc1ccc(-c2nc(=O)o[nH]2)c(Cl)c1 [Example 46, 3-[2-Chloro-4-(4-methyl-2-quinolin-8-yl-thiazol-5-ylmethoxy)-phenyl]-2H-[1,2,4]oxadiazol-5-one]
8 | > 33000 nM | 14 nM | Cc1nc(-c2ccc(C(F)(F)F)nc2)sc1C(OCc1ccc(-c2noc(=O)[nH]2)c(F)c1)C(F)(F)F (stereo not drawn) [Example 31, 3-(2-Fluoro-4-{2,2,2-trifluoro-1-[4-methyl-2-(6-trifluoromethyl-pyridin-3-yl)-thiazol-5-yl]-ethoxymethyl}-phenyl)-4H-[1,2,4]oxadiazol-5-one]
9 | > 33000 nM | 130 nM | CCC(Oc1ccc(-c2noc(=O)[nH]2)c(F)c1)c1sc([C@H]2CC[C@H](C(F)(F)F)CC2)nc1CN1CCC(C(F)(F)F)CC1 (stereo partly drawn) [Example 68, 3-(2-Fluoro-4-{1-[2-(trans-1,4-trifluoromethyl-cyclohexyl)-4-(4-trifluoromethyl-piperidin-1-ylmethyl)-thiazol-5-yl]-propoxy}-phenyl)-4H-1,2,4-oxadiazol-5-one]
10 | 1250 nM | 130 nM | COCc1nc(C2CCCCCC2)sc1COc1ccc(-c2noc(=O)[nH]2)c(Cl)c1 [Example 11, 3-[2-Chloro-4-(2-cycloheptyl-4-methoxymethyl-thiazol-5-ylmethoxy)-phenyl]-4H-[1,2,4]oxadiazol-5-one]
11 | 5440 nM | 86 nM | Cc1nc([C@H]2CC[C@H](C(F)(F)F)CC2)sc1C(OCc1ccc(-c2noc(=O)[nH]2)c(C2CC2)c1)C(F)(F)F (stereo partly drawn) [Example 39, 3-(2-Cyclopropyl-4-{2,2,2-trifluoro-1-[4-methyl-2-(trans,1,4-trifluoromethyl-cyclohexyl)-thiazol-5-yl]-ethoxymethyl}-phenyl)-4H-[1,2,4]oxadiazol-5-one]
12 | 800 nM | 10 nM | COCc1nc([C@H]2CC[C@H](c3ccc(Cl)cc3)CC2)sc1COc1ccc(-c2noc(=O)[nH]2)c(Cl)c1 [Example 12, Trans-3-(2-Chloro-4-{2-[4-(4-chloro-phenyl)-cyclohexyl]-4-methoxymethyl-thiazol-5-ylmethoxy}-phenyl)-4H-[1,2,4]oxadiazol-5-one]
